US20200255436A1, “CORTICOTROPIN RELEASING FACTOR RECEPTOR ANTAGONISTS” (Spruce Biosciences, Inc., priority 2019, published 2020)
Read-outs that look alike come from different tables or passages of the source.

Experiments:
[1] = Phase 1 safety and tolerability (Study 1 and Study 2); format: in vivo, human; conditions: healthy subjects
Source text: Study 1 was the first-in-human study that investigated the safety, tolerability, and PK of single-escalating doses of Compound 1, given orally, to healthy adult subjects. […] The data from this study were used for the selection of doses for Study 2.
(§1) The 2-part multiple-dose study, Study 2, determined the safety and tolerability of repeated daily doses of Compound 1 and investigated the effects on biomarkers of relevance for the treatment of alcohol dependence.
The safety of Compound 1 was evaluated in 2 Phase 1 studies in healthy adult volunteers (Study 1 and Study 2). In both studies, adverse events (AEs), clinical laboratory tests, vital signs (supine blood pressure and pulse rate), and electrocardiograms (ECGs) were evaluated. Overall, in Study 1, Compound 1 was well-tolerated.

[2] = target: T1, CRF1 receptor (Homo sapiens, UniProt P34998); assay: Phase 2 study in adults with classic CAH: ACTH, 17-OHP, androstenedione response; format: in vivo; conditions: patients with classic CAH
T1 construct: from tissue; host or cells: Human patients in vivo (anterior pituitary corticotrophs)
T1 sequence (P34998 24-415): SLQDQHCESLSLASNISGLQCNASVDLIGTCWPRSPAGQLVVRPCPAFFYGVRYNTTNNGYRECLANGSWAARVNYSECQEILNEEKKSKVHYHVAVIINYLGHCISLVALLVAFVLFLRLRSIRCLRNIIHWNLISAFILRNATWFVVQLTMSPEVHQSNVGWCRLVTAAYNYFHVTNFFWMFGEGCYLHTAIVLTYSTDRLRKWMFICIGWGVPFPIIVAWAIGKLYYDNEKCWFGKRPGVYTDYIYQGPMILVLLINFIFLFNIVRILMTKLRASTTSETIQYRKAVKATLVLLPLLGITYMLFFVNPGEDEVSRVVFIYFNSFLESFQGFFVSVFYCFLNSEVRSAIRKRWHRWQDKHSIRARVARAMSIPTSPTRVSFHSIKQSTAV
Source text: Cohort A of the Phase 2 Study includes a 6-week, multiple-dose, dose escalation study of Compound 1 for the treatment of adults with classic CAH. After screening, eligible patients will be enrolled into a 6-week treatment period followed by a 4-week washout/safety follow-up period.
This cohort will be conducted in approximately 9 patients, who will receive Compound 1 daily for up to 6 weeks. Compound 1 will be administered as an oral daily dose. Patients will undergo titration of Compound 1 through three escalating dosage strengths at 2-week intervals. Patients will have overnight PK/PD assessments performed at baseline, which include an pre-dose overnight assessment and a post-dose overnight assessment for PK/PD following administration of the first dose. At the end of each 2-week dosing period, patients will return for single overnight visits for steady-state PK/PD assessments. A follow-up outpatient visit will occur 30 days after their last dose. Upon completion of the initial cohort (Cohort A), the study will proceed to a multiple ascending dose (MAD) design with up to 3 sequential cohorts (Cohorts B, C, and D) to further evaluate the safety, PK, and PD of various SPROO1 dosing regimens and to identify an optimal dose regimen. Each cohort will undergo a 2-week run-in period, a 2-week treatment period, and a 30-day washout and safety follow-up period. During the run-in period, which will occur during screening, subjects will document in a paper diary each dose of glucocorticoid medication taken, the time of each meal, and the time they went to bed and woke up each day, to ensure compliance with background glucocorticoid regimens and the stability of their daily routine.
• 1. To evaluate the safety of Compound 1 in subjects with CAH. • 2. To assess the efficacy of Compound 1 in subjects with classic CAH as measured by percent and absolute change in 17-OHP compared to baseline.
• 3. To explore the dose(s) of Compound 1 that cause pharmacodynamics changes in plasma concentrations of ACTH, androstenedione, and testosterone, as measured by the absolute and percent change from baseline by dose. • 4. To determine pharmacokinetics of Compound 1 in subjects with CAH. • 5. To explore potential relationships between pharmacodynamics and pharmacokinetics.

[3] = Study 2 Part A: multiple-dose (14 days) pharmacokinetics; format: in vivo, human; conditions: for AUC(0-t): read-out: AUC0-24h; for Tmax: median; for concentration at 14 day: read-out: Cavg; for half-life: po, half-life calculated by accumulation ratio, read-out: Effective t1/2 (converted)
Procedure: as §1
PK were also evaluated in the multiple-dose, dose-escalation study, Study 2. In Part A of the study, subjects were divided into 3 cohorts and received 50, 150, or 200 mg Compound 1 or placebo for 14 consecutive days (at least 6 subjects received Compound 1 and 2 subjects received placebo in each cohort). […] All dosing occurred in the fed state. An assessment of diurnal cortisol levels, plus when under conditions of glucose clamp, were also carried out both prior to and during the dosing period.
Consistent with the single-dose study (Study 1), concentrations appeared to decline in a bi-exponential manner, characterized by a rapid decrease within the first 24 hours. […] The Tmax appeared to be consistent across doses. Overall half-lives, weight normalized CL/F and V/F were consistent for 150 and 200 mg. However, the values for these latter 2 parameters were almost doubled at the 50-mg dose level. Variability (CV%) for apparent clearance and volume of distribution were large and not reduced with weight-normalization.
Table 8 presents the results of the dose proportionality assessment for the AUC0-24 and Cmax over the tested dose range.

[4] = human, plasma, oral, 50 mg, 50 mg daily, Day 14, geometric mean
[5] = human, plasma, oral, 50 mg, Day 1, geometric mean
[6] = human, plasma, oral, 150 mg, 150 mg daily, Day 14, geometric mean
[7] = human, plasma, oral, 150 mg, Day 1, geometric mean
[8] = human, plasma, oral, 200 mg, 200 mg daily, Day 14, geometric mean
[9] = human, plasma, oral, 200 mg, Day 1, geometric mean
[10] = human, plasma, oral, 50 mg daily, Day 14, geometric mean
[11] = human, plasma, oral, 150 mg daily, Day 14, geometric mean
[12] = human, plasma, oral, 200 mg daily, Day 14, geometric mean

CCC(CC)c1cc(C)nc2c(-c3sc(N4CCOCC4)nc3Cl)c(C)nn12 [Compound 1, 4-(4-chloro-5-(2,5-dimethyl-7-(pentan-3-yl)pyrazolo[1,5-a]pyrimidin-3-yl)thiazol-2-yl)morpholine]
tolerability ([1]; Study 1, single oral doses up to 800 mg): well-tolerated | tolerability ([1]; Study 2, multiple doses up to 200 mg): generally well tolerated | effect on morning rise in A4 (androstenedione) [2]: attenuates morning rise in A4 | subjects with 17-OHP within the guideline range (1200 ng/dL) after treatment [2]: 50% | subjects with ACTH in the normal range after treatment [2]: 40% | subjects with Androstenedione within normal reference range after treatment [2]: 50% | subjects with more than 25% reduction in 17-OHP [2]: 50% | subjects with more than 25% reduction in ACTH [2]: 70% | subjects with more than 25% reduction in Androstenedione [2]: 60% | subjects with reduction in 17-OHP [2]: 80% | subjects with reduction in ACTH [2]: 80% | subjects with reduction in Androstenedione ([2]; at various doses): 100% | RA (accumulation ratio, Day 14 AUC0-24/Day 1 AUC0-24) ([3]; 50 mg daily): 2.80 | CLaa/F ([3]; 50 mg daily, Day 14, geometric mean): 183 L/h | WT-norm Claa/F ([3]; 50 mg daily, Day 14, weight normalized): 48 mL/min/kg | RA (accumulation ratio, Day 14 AUC0-24/Day 1 AUC0-24) ([3]; 150 mg daily): 2.51 | CLaa/F ([3]; 150 mg daily, Day 14, geometric mean): 101 L/h | WT-norm Claa/F ([3]; 150 mg daily, Day 14, weight normalized): 23.7 mL/min/kg | RA (accumulation ratio, Day 14 AUC0-24/Day 1 AUC0-24) ([3]; 200 mg daily): 3.65 | CLaa/F ([3]; 200 mg daily, Day 14, geometric mean): 98 L/h | WT-norm Claa/F ([3]; 200 mg daily, Day 14, weight normalized): 25 mL/min/kg | Cmax [3, 4]: 50.3 ng/mL | AUC(0-t) [3, 4]: 273 ng·h/mL | Vd/F at 14 days ([3]; human, plasma, oral, 50 mg, 50 mg daily, Day 14, geometric mean, read-out: Vss/F): 12900 L | Tmax ([3]; human, plasma, oral, 50 mg, 50 mg daily, Day 14): 5 h | Vd/F at 14 days ([3]; human, plasma, oral, 50 mg, 50 mg daily, Day 14, weight normalized, read-out: WT-norm Vss/F): 204 L/kg | Cmax [3, 5]: 22.7 ng/mL | AUC(0-t) [3, 5]: 97.6 ng·h/mL | Tmax ([3]; human, plasma, oral, 50 mg, Day 1): 4.52 h | Cmax [3, 6]: 222 ng/mL | AUC(0-t) [3, 6]: 1480 ng·h/mL | Vd/F at 14 days ([3]; human, plasma, oral, 150 mg, 150 mg daily, Day 14, geometric mean, read-out: Vss/F): 6170 L | Vd/F at 14 days ([3]; human, plasma, oral, 150 mg, 150 mg daily, Day 14, geometric mean, read-out: Vz/F): 17600 L | Tmax ([3]; human, plasma, oral, 150 mg, 150 mg daily, Day 14): 5 h | Vd/F at 14 days ([3]; human, plasma, oral, 150 mg, 150 mg daily, Day 14, weight normalized, read-out: WT-norm Vss/F): 86.5 L/kg | Cmax [3, 7]: 127 ng/mL | AUC(0-t) [3, 7]: 590 ng·h/mL | Tmax ([3]; human, plasma, oral, 150 mg, Day 1): 5 h | Cmax [3, 8]: 314 ng/mL | AUC(0-t) [3, 8]: 2040 ng·h/mL | Vd/F at 14 days ([3]; human, plasma, oral, 200 mg, 200 mg daily, Day 14, geometric mean, read-out: Vss/F): 5080 L | Vd/F at 14 days ([3]; human, plasma, oral, 200 mg, 200 mg daily, Day 14, geometric mean, read-out: Vz/F): 16300 L | Tmax ([3]; human, plasma, oral, 200 mg, 200 mg daily, Day 14): 5 h | Vd/F at 14 days ([3]; human, plasma, oral, 200 mg, 200 mg daily, Day 14, weight normalized, read-out: WT-norm Vss/F): 77.4 L/kg | Cmax [3, 9]: 143 ng/mL | AUC(0-t) [3, 9]: 559 ng·h/mL | Tmax ([3]; human, plasma, oral, 200 mg, Day 1): 5 h | AUC(0-inf) [3, 10]: 980 ng·h/mL | concentration at 14 day [3, 10]: 11.4 ng/mL | AUC(0-inf) [3, 11]: 4680 ng·h/mL | concentration at 14 day [3, 11]: 61.7 ng/mL | AUC(0-inf) [3, 12]: 5660 ng·h/mL | concentration at 14 day [3, 12]: 85 ng/mL | half-life at 2 weeks ([3]; human, plasma, oral, following multiple daily dosing for 2 weeks): > 100 h | half-life ([3]; human, plasma, 50 mg daily, Day 14): 37.7 h | half-life ([3]; human, plasma, 150 mg daily, Day 14): 32.7 h | half-life ([3]; human, plasma, 200 mg daily, Day 14): 52 h
